Assay results as given in ChEMBL document CHEMBL1133037, “The design, synthesis and physical chemical properties of novel human vasopressin V2-receptor antagonists optimized for parenteral delivery” (Bioorg Med Chem Lett, 2000).
In brackets after ≈: the same amount, converted by molar mass. Activity calls are given as the source filed them. No cut-off for these calls is given here.

What was measured:
Rattus norvegicus [1] = experiment: Ratio of rat urine volume collected from treatment group (10 mg/kg perorally) after 4 hours versus control group was determined; assay type: functional
Vasopressin V2 receptor = Vasopressin V2 receptor (Homo sapiens, UniProt P30518); experiment: Displacement of [3H]AVP from human vasopressin V2-receptor expressed in murine fibroblast cell (LV2) membranes; assay type: cell-based
Chain of Vasopressin V2 receptor (P30518 whole entry): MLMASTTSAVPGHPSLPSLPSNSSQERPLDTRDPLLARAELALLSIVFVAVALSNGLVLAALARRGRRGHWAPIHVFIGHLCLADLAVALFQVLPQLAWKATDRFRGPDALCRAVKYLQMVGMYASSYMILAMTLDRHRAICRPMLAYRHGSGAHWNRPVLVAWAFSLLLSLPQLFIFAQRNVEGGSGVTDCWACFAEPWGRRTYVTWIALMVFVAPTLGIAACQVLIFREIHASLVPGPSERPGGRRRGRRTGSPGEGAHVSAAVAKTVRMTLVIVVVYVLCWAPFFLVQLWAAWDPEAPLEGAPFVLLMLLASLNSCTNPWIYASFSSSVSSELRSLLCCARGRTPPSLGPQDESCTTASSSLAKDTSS

[2] = Compound was tested for solubility in a model parenteral system consisting of 30% poltethylene glycol 200 (PEG-200)/water; assay type: ADME; conditions: read-out: S
[3] = Compound was tested for solubility in a model parenteral system consisting of 30% poltethylene glycol 200 (PEG-200)/water (*, mixture of amophorus and crystalline material); assay type: ADME; conditions: read-out: S
Rattus norvegicus [4] = experiment: Ratio of urine volume collected from treatment group (10 mg/kg perorally) after 4 hours versus control group was determined; No effect; assay type: functional, organism-based
Rattus norvegicus [5] = experiment: Ratio of rat urine volume collected from treatment group (3 mg/kg perorally) after 4 hours versus control group was determined; assay type: functional
Rattus norvegicus [6] = experiment: Ratio of rat urine volume collected from treatment group (1 mg/kg perorally) after 4 hours versus control group was determined; assay type: functional

SMILES	IC50 (Vasopressin V2 receptor) [nM]	Ratio (Rattus norvegicus [1])	further results
CN1CCN(C2CCN(C(=O)c3ccc4n3Cc3ccccc3N(C(=O)c3ccc(NC(=O)c5ccccc5-c5ccccc5)cc3Cl)C4)CC2)CC1.Cl		2.7	
CN(C)C1CCN(C(=O)c2ccc3n2Cc2ccccc2N(C(=O)c2ccc(NC(=O)c4ccccc4-c4ccccc4)cc2Cl)C3)CC1	8.8		
CN1CCN(C(=O)c2ccc3n2Cc2ccccc2N(C(=O)c2ccc(NC(=O)c4ccccc4-c4ccccc4)cc2Cl)C3)CC1.O=C(O)CC(O)(CC(=O)O)C(=O)O			solubility [2]: 1700 µg/mL
O=C(Nc1ccc(C(=O)N2Cc3ccc(CN4CCC(N5CCCCC5)CC4)n3Cc3ccccc32)c(Cl)c1)c1ccccc1-c1ccccc1	2.1	1.5	
Cc1ccc(F)cc1C(=O)Nc1ccc(C(=O)N2Cc3ccc(C(=O)O)n3Cc3ccccc32)c(Cl)c1			Ratio (Rattus norvegicus [4]): inactive
CN(C)C1CCN(Cc2ccc3n2Cc2ccccc2N(C(=O)c2ccc(NC(=O)c4ccccc4-c4ccccc4)cc2Cl)C3)CC1	2	2.3	
Cc1ccc(F)cc1C(=O)Nc1ccc(C(=O)N2Cc3cccn3Cc3ccccc32)c(Cl)c1 [LIXIVAPTAN]		7.4	
CN1CCN(Cc2ccc3n2Cc2ccccc2N(C(=O)c2ccc(NC(=O)c4ccccc4-c4ccccc4)cc2Cl)C3)CC1	1.3	3.75	
COc1cc(NC(=O)c2ccccc2-c2ccccc2)ccc1C(=O)N1Cc2ccc(CN3CCN(C)CC3)n2Cc2ccccc21	7	7.8	solubility [2]: 300 µg/mL (≈ 479 µM)
Cc1ccc(F)cc1C(=O)Nc1ccc(C(=O)N2Cc3ccc(CN(C)C)n3Cc3ccccc32)c(Cl)c1			Ratio (Rattus norvegicus [5]): 1.4; Ratio (Rattus norvegicus [6]): 1.4

The next lines start with results.

IC50 (Vasopressin V2 receptor) [nM]	SMILES	Ratio (Rattus norvegicus [1])	further results
2.6	CN(C)CCN(C)Cc1ccc2n1Cc1ccccc1N(C(=O)c1ccc(NC(=O)c3ccccc3-c3ccccc3)cc1Cl)C2	4.2	
14.8	CN(C)Cc1ccc2n1Cc1ccccc1N(C(=O)c1ccc(NC(=O)c3ccccc3-c3ccccc3)cc1O)C2	3.8	solubility [3]: 1900 µg/mL (≈ 3410 µM)
5.2	COc1cc(C(=O)N2Cc3ccc(CN(C)C)n3Cc3ccccc32)ccc1NC(=O)c1ccccc1-c1ccccc1	5	solubility [2]: 2200 µg/mL (≈ 3850 µM)
7.5	CN(C)Cc1ccc2n1Cc1ccccc1N(C(=O)c1ccc(NC(=O)c3ccccc3-c3ccccc3)cc1Cl)C2	6.6	solubility [3]: 720 µg/mL (≈ 1250 µM); Ratio (Rattus norvegicus [5]): 5.6; Ratio (Rattus norvegicus [6]): 2.3
